# Reference: ChEMBL document CHEMBL1201861, “Genomics of Drug Sensitity in Cancer screening data, Wellcome Trust Sanger Institute”
# Columns and labels:
# Assay in all cases: cells
# Details in all cases: Homo sapiens
# MSTO-211H = assay type: functional, cell-based
# Description: SANGER: Inhibition of human MSTO-211H cell growth in a cell viability assay.
# EW-24 = assay type: functional, cell-based;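 also: human EW-24 cancer cell line, growth inhibition read out via a cell viability assay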
# Description: SANGER: Inhibition of human EW-24 cell growth in a cell viability assay.
# NB6 = assay type: functional, cell-based;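 also: growth inhibition of NB6 cells, read out by a cell viability assay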
# Description: SANGER: Inhibition of human NB6 cell growth in a cell viability assay.
# HuTu80 = assay type: functional, cell-based, HUTU-80;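 also: growth inhibition of HuTu80 human cells, determined with a cell viability readout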
# Description: SANGER: Inhibition of human HUTU-80 cell growth in a cell viability assay.
# MV4-11 = assay type: functional, cell-based, MV-4-11;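 also: cell viability readout measuring growth inhibition of human MV-4-11 cells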
# Description: SANGER: Inhibition of human MV-4-11 cell growth in a cell viability assay.
# AM-38 = assay type: functional, cell-based;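 also: growth inhibition of AM-38 cells of human origin, read out by a cell viability assay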
# Description: SANGER: Inhibition of human AM-38 cell growth in a cell viability assay.
# SNB-75 = assay type: functional, cell-based;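 also: cell viability assay measuring growth inhibition of human SNB-75 cells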
# Description: SANGER: Inhibition of human SNB75 cell growth in a cell viability assay.
# MMAC-SF = assay type: functional, cell-based;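 also: growth inhibition of human MMAC-SF cells, read out with a cell viability assay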
# Description: SANGER: Inhibition of human MMAC-SF cell growth in a cell viability assay.
# RH-1 = assay type: functional, cell-based;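 also: growth inhibition of human RH-1 cells, read out with a cell viability assay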
# Description: SANGER: Inhibition of human RH-1 cell growth in a cell viability assay.
# KM-H2 = assay type: functional, cell-based;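 also: growth inhibition of KM-H2 cells, read out by a cell viability assay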
# Description: SANGER: Inhibition of human KM-H2 cell growth in a cell viability assay.
# NKM-1 = assay type: functional, cell-based;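 also: growth inhibition of NKM-1 cells, read out with a cell viability assay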
# Description: SANGER: Inhibition of human NKM-1 cell growth in a cell viability assay.
# NCI-H720 = assay type: functional, cell-based;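 also: growth inhibition of human NCI-H720 cells determined by a cell viability assay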
# Description: SANGER: Inhibition of human NCI-H720 cell growth in a cell viability assay.
# HC-1 = assay type: functional, cell-based;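 also: growth inhibition of HC-1 cells measured by a cell viability assay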
# Description: SANGER: Inhibition of human HC-1 cell growth in a cell viability assay.
# GI-ME-N = assay type: functional, cell-based;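 also: growth inhibition of human GI-ME-N cells, read out with a cell viability assay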
# Description: SANGER: Inhibition of human GI-ME-N cell growth in a cell viability assay.
# Mo = assay type: functional, cell-based
# Description: SANGER: Inhibition of human Mo-T cell growth in a cell viability assay.
# DB = assay type: functional, cell-based
# Description: SANGER: Inhibition of human DB cell growth in a cell viability assay.
# KURAMOCHI = assay type: functional, cell-based;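 also: growth inhibition of KURAMOCHI cells, read out with a cell viability assay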
# Description: SANGER: Inhibition of human KURAMOCHI cell growth in a cell viability assay.
# DU-4475 = assay type: functional, cell-based
# Description: SANGER: Inhibition of human DU-4475 cell growth in a cell viability assay.
# COLO-684 = assay type: functional, cell-based
# Description: SANGER: Inhibition of human COLO-684 cell growth in a cell viability assay.
# MEG-01 = assay type: functional, cell-based;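 also: growth inhibition of MEG-01 cells, read out by a cell viability assay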
# Description: SANGER: Inhibition of human MEG-01 cell growth in a cell viability assay.
# ES6 = assay type: functional, cell-based;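 also: growth inhibition of human ES6 cells, read out with a cell viability assay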
# Description: SANGER: Inhibition of human ES6 cell growth in a cell viability assay.
# Becker = assay type: functional, cell-based;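 also: growth inhibition of Becker cells, read out with a cell viability assay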
# Description: SANGER: Inhibition of human Becker cell growth in a cell viability assay.
# C2BBe1 = assay type: functional, cell-based;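 also: growth inhibition of C2BBe1 cells, read out through a viability assay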
# Description: SANGER: Inhibition of human C2BBe1 cell growth in a cell viability assay.
# SF-268 = assay type: functional, cell-based;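 also: growth inhibition of SF-268 cells determined with a cell viability assay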
# Description: SANGER: Inhibition of human SF268 cell growth in a cell viability assay.
# CTV-1 = assay type: functional, cell-based;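 also: growth inhibition of the cell line, read out with a cell viability assay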
# Description: SANGER: Inhibition of human CTV-1 cell growth in a cell viability assay.
# BT-474 = assay type: functional, cell-based
# Description: SANGER: Inhibition of human BT-474 cell growth in a cell viability assay.
# KNS-81-FD = assay type: functional, cell-based;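 also: growth inhibition of KNS-81-FD cells, read out with a cell viability assay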
# Description: SANGER: Inhibition of human KNS-81-FD cell growth in a cell viability assay.
# BE-13 = assay type: functional, cell-based;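 also: growth inhibition of human BE-13 cells, measured with a cell viability assay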
# Description: SANGER: Inhibition of human BE-13 cell growth in a cell viability assay.
# TE-12 = assay type: functional, cell-based;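 also: growth inhibition of TE-12 cells, read out by a cell viability assay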
# Description: SANGER: Inhibition of human TE-12 cell growth in a cell viability assay.
# HCC1599 = assay type: functional, cell-based;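 also: growth inhibition of HCC1599 cells, read out in a cell viability assay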
# Description: SANGER: Inhibition of human HCC1599 cell growth in a cell viability assay.
# CP66-MEL = assay type: functional, cell-based;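 also: growth inhibition of CP66-MEL cells determined in a cell viability assay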
# Description: SANGER: Inhibition of human CP66-MEL cell growth in a cell viability assay.
# NCI-H1395 = assay type: functional, cell-based;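 also: cell viability assay read-out quantifying reduced proliferation of human NCI-H1395 cells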
# Description: SANGER: Inhibition of human NCI-H1395 cell growth in a cell viability assay.
# RS4-11 = assay type: functional, cell-based;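 also: growth inhibition of RS4-11 cells, read out by a cell viability assay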
# Description: SANGER: Inhibition of human RS4-11 cell growth in a cell viability assay.
# L-540 = assay type: functional, cell-based;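 also: growth inhibition of the human L-540 cell line, read out with a viability assay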
# Description: SANGER: Inhibition of human L-540 cell growth in a cell viability assay.
# SK-N-FI = assay type: functional, cell-based;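 also: cell viability assay measuring growth inhibition of human SK-N-FI cells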
# Description: SANGER: Inhibition of human SK-N-FI cell growth in a cell viability assay.
# HCC 2998 = assay type: functional, cell-based;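 also: growth inhibition of human HCC2998 cells, measured with a cell viability read-out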
# Description: SANGER: Inhibition of human HCC2998 cell growth in a cell viability assay.
# VA-ES-BJ = assay type: functional, cell-based;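 also: growth inhibition of the VA-ES-BJ cell line, read out by a cell viability assay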
# Description: SANGER: Inhibition of human VA-ES-BJ cell growth in a cell viability assay.
# IST-MEL1 = assay type: functional, cell-based;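 also: growth inhibition of the cell line, read out with a cell viability assay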
# Description: SANGER: Inhibition of human IST-MEL1 cell growth in a cell viability assay.
# KE-37 = assay type: functional, cell-based;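 also: growth inhibition of KE-37 cells, read out with a cell viability assay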
# Description: SANGER: Inhibition of human KE-37 cell growth in a cell viability assay.
# RPMI-8866 = assay type: functional, cell-based
# Description: SANGER: Inhibition of human RPMI-8866 cell growth in a cell viability assay.
# Lu-65 = assay type: functional, cell-based;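 also: growth inhibition of Lu-65 cancer cells, read out by a cell viability assay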
# Description: SANGER: Inhibition of human LU-65 cell growth in a cell viability assay.
# NCI-H1650 = assay type: functional, cell-based;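 also: growth inhibition of human NCI-H1650 cells measured by a cell viability assay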
# Description: SANGER: Inhibition of human NCI-H1650 cell growth in a cell viability assay.
# NCI-H526 = assay type: functional, cell-based;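 also: growth inhibition of the human NCI-H526 cell line, measured by a cell viability assay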
# Description: SANGER: Inhibition of human NCI-H526 cell growth in a cell viability assay.
# D-263MG = assay type: functional, cell-based
# Description: SANGER: Inhibition of human D-263MG cell growth in a cell viability assay.
# SW 962 = assay type: functional, cell-based;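 also: growth inhibition of human SW962 cells, read out by a cell viability assay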
# Description: SANGER: Inhibition of human SW962 cell growth in a cell viability assay.
# MZ7-mel = assay type: functional, cell-based;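 also: growth inhibition of human MZ7-mel cells, measured by a cell viability assay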
# Description: SANGER: Inhibition of human MZ7-mel cell growth in a cell viability assay.
# NB5 = assay type: functional, cell-based;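 also: growth inhibition of NB5 cells, read out as cell viability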
# Description: SANGER: Inhibition of human NB5 cell growth in a cell viability assay.
# ATN-1 = assay type: functional, cell-based;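 also: growth inhibition of human ATN-1 cells, read out with a cell viability assay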
# Description: SANGER: Inhibition of human ATN-1 cell growth in a cell viability assay.
# IST-MES1 = assay type: functional, cell-based;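 also: growth inhibition of IST-MES1 cells, measured with a cell viability assay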
# Description: SANGER: Inhibition of human IST-MES1 cell growth in a cell viability assay.
# SF-126 = assay type: functional, cell-based;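 also: growth inhibition of human SF126 cells, read out with a cell viability assay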
# Description: SANGER: Inhibition of human SF126 cell growth in a cell viability assay.
# LXF-289 cell line = assay type: functional, cell-based
# Description: SANGER: Inhibition of human LXF-289 cell growth in a cell viability assay.
# LB373-MEL-D = assay type: functional, cell-based;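 also: growth inhibition of the cell line, read out in a cell viability assay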
# Description: SANGER: Inhibition of human LB373-MEL-D cell growth in a cell viability assay.
# MS-1 = assay type: functional, cell-based;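 also: growth inhibition of MS-1 cells, read out by cell viability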
# Description: SANGER: Inhibition of human MS-1 cell growth in a cell viability assay.
# GCIY = assay type: functional, cell-based;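 also: growth inhibition of the human GCIY cell line, read out by a cell viability assay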
# Description: SANGER: Inhibition of human GCIY cell growth in a cell viability assay.
# NEC8 = assay type: functional, cell-based;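 also: growth inhibition of human NEC8 cells, read out by a cell viability assay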
# Description: SANGER: Inhibition of human NEC8 cell growth in a cell viability assay.
# SCC-15 = assay type: functional, cell-based;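 also: growth inhibition of SCC-15 cells, read out with a cell viability assay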
# Description: SANGER: Inhibition of human SCC-15 cell growth in a cell viability assay.
# TGBC24TKB = assay type: functional, cell-based;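 also: growth inhibition of human TGBC24TKB cells, read out with a cell viability assay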
# Description: SANGER: Inhibition of human TGBC24TKB cell growth in a cell viability assay.
smiles,measurement,setting,value
CCn1c(-c2nonc2N)nc2cnc(Oc3cccc(NC(=O)c4ccc(OCCN5CCOCC5)cc4)c3)cc21 [GSK-269962A],IC50,MSTO-211H,> 2500 nM
same,IC50,EW-24,> 2500 nM
same,IC50,NB6,591 nM
same,IC50,HuTu80,> 2500 nM
same,IC50,MV4-11,139 nM
same,IC50,AM-38,> 2500 nM
same,IC50,SNB-75,> 2500 nM
same,IC50,MMAC-SF,> 2500 nM
same,IC50,RH-1,> 2500 nM
same,IC50,KM-H2,> 2500 nM
same,IC50,NKM-1,> 2500 nM
same,IC50,NCI-H720,2450 nM
same,IC50,HC-1,> 2500 nM
same,IC50,GI-ME-N,49.5 nM
same,IC50,Mo,> 2500 nM
same,IC50,DB,> 2500 nM
same,IC50,KURAMOCHI,> 2500 nM
same,IC50,DU-4475,> 2500 nM
same,IC50,COLO-684,> 2500 nM
same,IC50,MEG-01,> 2500 nM
same,IC50,ES6,247 nM
same,IC50,Becker,> 2500 nM
same,IC50,C2BBe1,> 2500 nM
same,IC50,SF-268,> 2500 nM
same,IC50,CTV-1,> 2500 nM
same,IC50,BT-474,> 2500 nM
same,IC50,KNS-81-FD,> 2500 nM
same,IC50,BE-13,141 nM
same,IC50,TE-12,> 2500 nM
same,IC50,HCC1599,> 2500 nM
same,IC50,CP66-MEL,> 2500 nM
same,IC50,NCI-H1395,> 2500 nM
same,IC50,RS4-11,> 2500 nM
same,IC50,L-540,> 2500 nM
same,IC50,SK-N-FI,> 2500 nM
same,IC50,HCC 2998,> 2500 nM
same,IC50,VA-ES-BJ,> 2500 nM
same,IC50,IST-MEL1,> 2500 nM
same,IC50,KE-37,> 2500 nM
same,IC50,RPMI-8866,> 2500 nM
same,IC50,Lu-65,> 2500 nM
same,IC50,NCI-H1650,> 2500 nM
same,IC50,NCI-H526,> 2500 nM
same,IC50,D-263MG,85.1 nM
same,IC50,SW 962,> 2500 nM
same,IC50,MZ7-mel,> 2500 nM
same,IC50,NB5,> 2500 nM
same,IC50,ATN-1,> 2500 nM
same,IC50,IST-MES1,> 2500 nM
same,IC50,SF-126,> 2500 nM
same,IC50,LXF-289 cell line,> 2500 nM
same,IC50,LB373-MEL-D,> 2500 nM
same,IC50,MS-1,> 2500 nM
same,IC50,GCIY,> 2500 nM
same,IC50,NEC8,> 2500 nM
Cc1[nH]c(/C=C2\C(=O)Nc3ccc(S(=O)(=O)Cc4c(Cl)cccc4Cl)cc32)c(C)c1C(=O)N1CCC[C@@H]1CN1CCCC1 [PHA-665752],IC50,MSTO-211H,> 2000 nM
same,IC50,EW-24,> 2000 nM
same,IC50,NB6,> 2000 nM
same,IC50,HuTu80,> 2000 nM
same,IC50,MV4-11,1290 nM
same,IC50,AM-38,> 2000 nM
same,IC50,SNB-75,> 2000 nM
same,IC50,MMAC-SF,> 2000 nM
same,IC50,RH-1,> 2000 nM
same,IC50,KM-H2,> 2000 nM
same,IC50,NKM-1,> 2000 nM
same,IC50,NCI-H720,> 2000 nM
same,IC50,HC-1,> 2000 nM
same,IC50,GI-ME-N,> 2000 nM
same,IC50,Mo,> 2000 nM
same,IC50,DB,> 2000 nM
same,IC50,KURAMOCHI,> 2000 nM
same,IC50,DU-4475,> 2000 nM
same,IC50,COLO-684,> 2000 nM
same,IC50,MEG-01,> 2000 nM
same,IC50,ES6,> 2000 nM
same,IC50,Becker,> 2000 nM
same,IC50,C2BBe1,> 2000 nM
same,IC50,SF-268,> 2000 nM
same,IC50,CTV-1,> 2000 nM
same,IC50,BT-474,> 2000 nM
same,IC50,KNS-81-FD,> 2000 nM
same,IC50,BE-13,> 2000 nM
same,IC50,TE-12,> 2000 nM
same,IC50,HCC1599,> 2000 nM
same,IC50,CP66-MEL,> 2000 nM
same,IC50,NCI-H1395,> 2000 nM
same,IC50,RS4-11,> 2000 nM
same,IC50,SCC-15,> 2000 nM
same,IC50,L-540,> 2000 nM
same,IC50,SK-N-FI,> 2000 nM
same,IC50,VA-ES-BJ,> 2000 nM
same,IC50,IST-MEL1,> 2000 nM
same,IC50,KE-37,> 2000 nM
same,IC50,RPMI-8866,> 2000 nM
same,IC50,Lu-65,> 2000 nM
same,IC50,NCI-H1650,> 2000 nM
same,IC50,NCI-H526,> 2000 nM
same,IC50,D-263MG,> 2000 nM
same,IC50,SW 962,> 2000 nM
same,IC50,MZ7-mel,> 2000 nM
same,IC50,NB5,> 2000 nM
same,IC50,ATN-1,> 2000 nM
same,IC50,IST-MES1,> 2000 nM
same,IC50,SF-126,> 2000 nM
same,IC50,LXF-289 cell line,> 2000 nM
same,IC50,TGBC24TKB,> 2000 nM
same,IC50,LB373-MEL-D,> 2000 nM
same,IC50,MS-1,> 2000 nM
same,IC50,GCIY,> 2000 nM
same,IC50,NEC8,> 2000 nM
